Results taken from patent EP0339504A2, “Human immunodeficiency virus (HIV) env-coded peptide capable of eliciting HIV-inhibiting antibodies in mammals” (priority 1988, dated 1989).

Tests used:
guinea pigs = assay: Immunization of guinea pigs with peptide-carrier protein conjugate; anti-peptide antibodies by ELISA; format: in vivo, guinea pig
Procedure: Peptides were conjugated to either ovalbumin or keyhole limpet hemocyanin prior to immunization. For ELISA studies, human serum albumin (HSA) was used as the carrier protein. Carrier protein (2 mg/ml) was activated with 0.5% glutaraldehyde for 30 to 60 min at room temperature, then an equal volume of the peptide solution (2 mg/ml in dimethylsulfoxide) was added. The reaction took place overnight at 4°C, following which the reaction mixture was dialyzed overnight against deionized water or 0.1 M glycine, pH 7.0 in the case of human serum albumin.
Guinea pigs and rabbits were immunized following standard immunization protocols. Guinea pigs and rabbits were immunized initially with 100 to 200 µg of the peptide-carrier protein conjugate in complete Freund's adjuvant, and boosted using half the amount of peptide-carrier protein conjugate in incomplete Freund's adjuvant every two weeks thereafter. Serum samples were obtained at every other boost.
All of the peptides listed in Table 1 were conjugated to a carrier protein (either keyhole limpet hemocyanin or ovalbumin) and each peptide-carrier protein conjugate was used to immunize two guinea pigs. Guinea pigs were selected as a convenient test animal system. The resultant guinea pig antiserum samples were monitored for anti-peptide reactivity using ELISA procedures. […] A time point of six months was selected for testing the antiviral (i.e, HIV neutralizing and cell fusion-blocking) characteristics of the guinea pig antisera.
Although different levels of antibodies were produced, there was no case where only one animal from the pair produced antibodies.

HIV-1 IIIB = assay: HIV neutralization assay with anti-peptide sera (p24 antigen in Molt 4 culture supernatant); format: cell-based; conditions: Molt 4 cells, day six
Procedure: Approximately 500 TCID₅₀ infectious units of HIV-1 IIIB or HIV-1 RF in 25 µl were mixed and incubated with serum dilutions (25 µl) for 30 min at 37°C. Molt 4 cells (4x10⁴) were added in a volume of 100 µl and incubation continued for six days at 37°C. The final dilution of the serum sample was 1 to 20. The total volume of each culture was doubled daily by addition of fresh medium (RPMI + 20% fetal calf serum). On day six, 100 µl samples were taken from the supernatant and tested for the level of viral gag-coded p24 antigen using an antigen capture assay (Du Pont, Wilmington, DE).

[1] = test system: CEM cells chronically infected with HIV-1 IIIB; assay: Cell fusion assay with anti-peptide sera (giant cell count); format: cell-based; conditions: 1:10 serum dilution, control sera 50,65
Procedure: Briefly, 5000 CEM cells chronically infected with HIV-1 IIIB or HIV-1 RF were mixed with 75,000 Molt 4 cells in a volume of 100 µl in a 96 well half-area plate. Final dilution of sera in the assay was 1 to 20. Twenty-four hours later giant cells were visually enumerated at a 40x magnification.

[2] = test system: antibodies from human HIV-1 seropositive serum samples; assay: ELISA detection of binding of human antibodies to immobilized synthetic peptides; conditions: wells blocked with diluent 1 hour before use
Procedure: Synthetic peptides were immobilized directly on Immulon®-II microtiter plates using glutaraldehyde. The plates were activated with 2% glutaraldehyde for 2 hrs at room temperature or 0.1% glutaraldehyde for 30 min and rinsed with deionized water. Two conditions of glutaraldehyde treatment were used routinely; the 2% glutaraldehyde was used to ensure adequate binding of the peptide to the plate and the 0.1% glutaraldehyde to avoid alteration of the binding sites. Peptide solutions of 100 µl containing 10 µg/ml in 60 mM bicarbonate buffer, pH 9.6, were added per well and incubated overnight at 4°C. The plates were washed and blocked with PBST (phosphate buffered saline + 0.05% Tween® 10) for 1 hr at 37°C and stored dry at 4°C.
This procedure was used to assure immobilization of the peptide to the microtiter plate. The peptide-HSA conjugate was immobilized on the microtiter plate well using the procedure above, except that glutaraldehyde was not included in the reaction.
Immediately before use, where indicated, the plates were blocked again with 100 µl of diluent (PBST + 5% bovine serum albumin + 20% heat inactivated normal goat serum + 0.1% sodium azide + 0.05% thimerosal) for 30 to 60 min at 37°C. […] The optical density or absorbance of the reaction was determined using a microtiter plate reader. […]

## peptide 1-80: aa number 418 to 432 of HIV-1 IIIB env-coded protein (CRIKQIINMWQKVGK; Surface protein gp120; UniProt P04578 418-432, looked up, fragment)
Guinea pigs; anti-peptide ELISA of guinea pig antiserum, 6 month bleed, dilution at which an absorbance of 0.1 would be obtained, one row per animal
  LIMITING DILUTION: 30
Guinea pigs; by 6 months following the first immunization
  level of anti-peptide antibodies elicited (in words): elicited very low levels of anti-peptide antibodies
Guinea pigs; rows marked + : guinea pig antiserum, 2-5 month bleed, dilution giving absorbance 0.1
  LIMITING DILUTION: < 20
HIV-1 IIIB; guinea pig antiserum, 6 month bleed
  NEUTRALIZATION ACTIVITY (quantity of p24 present in the supernatant): 800 ng/mL
HIV-1 IIIB; rows marked + : guinea pig antiserum, 2-5 month bleed
  NEUTRALIZATION ACTIVITY (quantity of p24 present in the supernatant): >800 ng/mL
[1]; guinea pig antiserum, 6 month bleed, two counts per cell separated by a comma (no decimal)
  FUSION ASSAY (number of giant cells formed): 63,66
[1]; rows marked + : guinea pig antiserum, 2-5 month bleed, two counts separated by a comma
  FUSION ASSAY (number of giant cells formed): 54,53
[2]; positive = ELISA absorbance greater than 0.2
  HIV SEROPOSITIVE SERA Number of Peptide ELISA Positive Sera of 37 Tested: 14
[2]; positive = absorbance greater than 0.2
  HIV SEROPOSITIVE SERA Positive Sera Average Absorbance ± SD: 0.34 ± 0.24
